Drawing on patent US11331369B2, “Endoparasitic depsipeptides” (Zoetis Services LLC, priority 2017, dated 2022), this text covers minimal effective concentration for 14 compounds.

The subject of the test is microfilariae of Dirofilaria immitis. The test can be described thus: Dirofilaria immitis, Microfilaria (DiMF) In vitro Assay. It is filed as cell-based. The following applies: 72 h, read-out: DiMF Minimum Effective Dose (MED), approximately 72 hours incubation, microfilariae assessed for survival or paralysis.
`CC(C)C[C@H]1C(=O)O[C@H](Cc2ccc(Cn3cc(CN)cn3)cc2)C(=O)N(C)[C@@H](CC(C)C)C(=O)O[C@H](C)C(=O)N(C)[C@@H](CC(C)C)C(=O)O[C@H](Cc2ccccc2)C(=O)N(C)[C@@H](CC(C)C)C(=O)O[C@H](C)C(=O)N1C` [Example 2-59, (3S,6R,9S,12R,15S,18R,21S,24R)-6-(4-((4-(aminomethyl)-1H-pyrazol-1-yl)methyl)benzyl)-18-benzyl-3,9,15,21-tetraisobutyl-4,10,12,16,22,24-hexamethyl-1,7,13,19-tetraoxa-4,10,16,22-tetraazacyclotetracosan-2,5,8,11,14,17,20,23-octaone]: the minimal effective concentration lay in the range of 0.01 to 0.1 µM.

As to `Cc1nn(Cc2ccc(C[C@H]3OC(=O)[C@H](CC(C)C)N(C)C(=O)[C@@H](C)OC(=O)[C@H](CC(C)C)N(C)C(=O)[C@@H](Cc4ccc(Cn5cc(Br)c(C)n5)cc4)OC(=O)[C@H](CC(C)C)N(C)C(=O)[C@@H](C)OC(=O)[C@H](CC(C)C)N(C)C3=O)cc2)cc1Br` [Example 1b-43, (3S,6R,9S,12R,15S,18R,21S,24R)-6,18-bis(4-((4-bromo-3-methyl-1H-pyrazol-1-yl)methyl)benzyl)-3,9,15,21-tetraisobutyl-4,10,12,16,22,24-hexamethyl-1,7,13,19-tetraoxa-4,10,16,22-tetraazacyclotetracosan-2,5,8,11,14,17,20,23-octaone], the minimal effective concentration lay within 0.01 to 0.1 µM.

`Cc1cnn(Cc2ccc(C[C@H]3OC(=O)[C@H](CC(C)C)N(C)C(=O)[C@@H](C)OC(=O)[C@H](CC(C)C)N(C)C(=O)[C@@H](Cc4ccc(Cn5cc(-c6ccc(F)cc6)cn5)cc4)OC(=O)[C@H](CC(C)C)N(C)C(=O)[C@@H](C)OC(=O)[C@H](CC(C)C)N(C)C3=O)cc2)c1` [Example 1a-22, (3S,6R,9S,12R,15S,18R,21S,24R)-6-(4-((4-(4-fluorophenyl)-1H-pyrazol-1-yl)methyl)benzyl)-3,9,15,21-tetraisobutyl-4,10,12,16,22,24-hexamethyl-18-(4-((4-methyl-1H-pyrazol-1-yl)methyl)benzyl)-1,7,13,19-tetraoxa-4,10,16,22-tetraazacyclotetracosan-2,5,8,11,14,17,20,23-octaone]: the minimal effective concentration is 0.01 to 0.1 µM.

On to `Cc1nn(Cc2ccc(C[C@H]3OC(=O)[C@H](CC(C)C)N(C)C(=O)[C@@H](C)OC(=O)[C@H](CC(C)C)N(C)C(=O)[C@@H](Cc4ccc(Cn5nc(C)c(C#N)c5C)cc4)OC(=O)[C@H](CC(C)C)N(C)C(=O)[C@@H](C)OC(=O)[C@H](CC(C)C)N(C)C3=O)cc2)c(C)c1C#N` [Example 1b-117, 1,1′-(((((2R,5S,8R,11S,14R,17S,20R,23S)-5,11,17,23-tetraisobutyl-4,8,10,16,20,22-hexamethyl-3,6,9,12,15,18,21,24-octaoxo-1,7,13,19-tetraoxa-4,10,16,22-tetraazacyclotetracosane-2,14-diyl)bis(methylene))bis(4,1-phenylene))bis(methylene))bis(3,5-dimethyl-1H-pyrazole-4-carbonitrile)], for which the minimal effective concentration lay within 0.01 to 0.1 µM.

On to `CC(C)C[C@H]1C(=O)O[C@H](C)C(=O)N(C)[C@@H](CC(C)C)C(=O)O[C@H](Cc2ccccc2)C(=O)N(C)[C@@H](CC(C)C)C(=O)O[C@H](C)C(=O)N(C)[C@@H](CC(C)C)C(=O)O[C@@H](Cc2ccc(CN3CCCCC3)cc2)C(=O)N1C` [Example 10-2, (3S,6R,9S,12R,15S,18S,21S,24R)-6-benzyl-3,9,15,21-tetraisobutyl-4,10,12,16,22,24-hexamethyl-18-(4-(piperidin-1-ylmethyl)benzyl)-1,7,13,19-tetraoxa-4,10,16,22-tetraazacyclotetracosan-2,5,8,11,14,17,20,23-octaone], for which the minimal effective concentration is 0.01 to 0.1 µM.

In the case of `Cc1nn(Cc2ccc(C[C@H]3OC(=O)[C@H](CC(C)C)N(C)C(=O)[C@@H](C)OC(=O)[C@H](CC(C)C)N(C)C(=O)[C@@H](Cc4ccccc4)OC(=O)[C@H](CC(C)C)N(C)C(=O)[C@@H](C)OC(=O)[C@H](CC(C)C)N(C)C3=O)cc2)c(C)c1C(F)(F)F` [Example 2-81, (3S,6R,9S,12R,15S,18R,21S,24R)-6-benzyl-18-(4-((3,5-dimethyl-4-(trifluoromethyl)-1H-pyrazol-1-yl)methyl)benzyl)-3,9,15,21-tetraisobutyl-4,10,12,16,22,24-hexamethyl-1,7,13,19-tetraoxa-4,10,16,22-tetraazacyclotetracosan-2,5,8,11,14,17,20,23-octaone], the minimal effective concentration lay within 0.01 to 0.1 µM.

In the case of `CC(C)C[C@H]1C(=O)O[C@H](Cc2ccc(Cn3cc(OC4CCC4)cn3)cc2)C(=O)N(C)[C@@H](CC(C)C)C(=O)O[C@H](C)C(=O)N(C)[C@@H](CC(C)C)C(=O)O[C@H](Cc2ccc(Cn3cc(OC4CCC4)cn3)cc2)C(=O)N(C)[C@@H](CC(C)C)C(=O)O[C@H](C)C(=O)N1C` [Example 1b-141, (3S,6R,9S,12R,15S,18R,21S,24R)-6,18-bis(4-((4-cyclobutoxy-1H-pyrazol-1-yl)methyl)benzyl)-3,9,15,21-tetraisobutyl-4,10,12,16,22,24-hexamethyl-1,7,13,19-tetraoxa-4,10,16,22-tetraazacyclotetracosan-2,5,8,11,14,17,20,23-octaone], the minimal effective concentration was 0.01 to 0.1 µM.

With `CC(C)C[C@H]1C(=O)O[C@H](Cc2ccc(Cn3cc(-c4ccccn4)cn3)cc2)C(=O)N(C)[C@@H](CC(C)C)C(=O)O[C@H](C)C(=O)N(C)[C@@H](CC(C)C)C(=O)O[C@H](Cc2ccc(Cn3cc(-c4ccccn4)cn3)cc2)C(=O)N(C)[C@@H](CC(C)C)C(=O)O[C@H](C)C(=O)N1C` [Example 1b-71, (3S,6R,9S,12R,15S,18R,21S,24R)-3,9,15,21-tetraisobutyl-4,6,10,16,18,22-hexamethyl-12,24-bis(4-((4-(pyridin-2-yl)-1H-pyrazol-1-yl)methyl)benzyl)-1,7,13,19-tetraoxa-4,10,16,22-tetraazacyclotetracosan-2,5,8,11,14,17,20,23-octaone], the minimal effective concentration lay within 0.01 to 0.1 µM.

In the case of `CC(C)C[C@H]1C(=O)O[C@H](Cc2ccc(Cn3ccc(C4CCCC4)n3)cc2)C(=O)N(C)[C@@H](CC(C)C)C(=O)O[C@H](C)C(=O)N(C)[C@@H](CC(C)C)C(=O)O[C@H](Cc2ccccc2)C(=O)N(C)[C@@H](CC(C)C)C(=O)O[C@H](C)C(=O)N1C` [Example 2-88, (3S,6R,9S,12R,15S,18R,21S,24R)-6-benzyl-18-(4-((3-cyclopentyl-1H-pyrazol-1-yl)methyl)benzyl)-3,9,15,21-tetraisobutyl-4,10,12,16,22,24-hexamethyl-1,7,13,19-tetraoxa-4,10,16,22-tetraazacyclotetracosan-2,5,8,11,14,17,20,23-octaone], the minimal effective concentration was 0.01 to 0.1 µM.

For `Cc1c(CO)nn(Cc2ccc(C[C@H]3OC(=O)[C@H](CC(C)C)N(C)C(=O)[C@@H](C)OC(=O)[C@H](CC(C)C)N(C)C(=O)[C@@H](Cc4ccc(Cn5nc(CO)c(C)c5C(F)(F)F)cc4)OC(=O)[C@H](CC(C)C)N(C)C(=O)[C@@H](C)OC(=O)[C@H](CC(C)C)N(C)C3=O)cc2)c1C(F)(F)F` [Example 1b-124, (3S,6R,9S,12R,15S,18R,21S,24R)-6,18-bis(4-((3-(hydroxymethyl)-4-methyl-5-(trifluoromethyl)-1H-pyrazol-1-yl)methyl)benzyl)-3,9,15,21-tetraisobutyl-4,10,12,16,22,24-hexamethyl-1,7,13,19-tetraoxa-4,10,16,22-tetraazacyclotetracosan-2,5,8,11,14,17,20,23-octaone], the minimal effective concentration was 0.01 to 0.1 µM.

Regarding `CC(C)C[C@H]1C(=O)O[C@H](Cc2cccc(Cn3ccnc3)c2)C(=O)N(C)[C@@H](CC(C)C)C(=O)O[C@H](C)C(=O)N(C)[C@@H](CC(C)C)C(=O)O[C@H](Cc2ccc(Cn3ccnc3)cc2)C(=O)N(C)[C@@H](CC(C)C)C(=O)O[C@H](C)C(=O)N1C` [Example 7-2, (3S,6R,9S,12R,15S,18R,21S,24R)-6-(3-((1H-imidazol-1-yl)methyl)benzyl)-18-(4-((1H-imidazol-1-yl)methyl)benzyl)-3,9,15,21-tetraisobutyl-4,10,12,16,22,24-hexamethyl-1,7,13,19-tetraoxa-4,10,16,22-tetraazacyclotetracosan-2,5,8,11,14,17,20,23-octaone], the minimal effective concentration was 0.01 to 0.1 µM.

For the compound `CC(C)C[C@H]1C(=O)O[C@H](Cc2ccc(Cn3ccc(Br)cc3=O)cc2)C(=O)N(C)[C@@H](CC(C)C)C(=O)O[C@H](C)C(=O)N(C)[C@@H](CC(C)C)C(=O)O[C@H](Cc2ccc(Cn3ccc(Br)cc3=O)cc2)C(=O)N(C)[C@@H](CC(C)C)C(=O)O[C@H](C)C(=O)N1C` [Example 9-20, (3S,6R,9S,12R,15S,18R,21S,24R)-6,18-bis(4-((4-bromo-2-oxopyridin-1 (2H)-yl)methyl)benzyl)-3,9,15,21-tetraisobutyl-4,10,12,16,22,24-hexamethyl-1,7,13,19-tetraoxa-4,10,16,22-tetraazacyclotetracosan-2,5,8,11,14,17,20,23-octaone], the minimal effective concentration was in the range of 0.01 to 0.1 µM.

Regarding `CC(C)C[C@H]1C(=O)O[C@H](Cc2cccc(Cn3nc(C4CC4)cc3C3CC3)c2)C(=O)N(C)[C@@H](CC(C)C)C(=O)O[C@H](C)C(=O)N(C)[C@@H](CC(C)C)C(=O)O[C@H](Cc2ccccc2)C(=O)N(C)[C@@H](CC(C)C)C(=O)O[C@H](C)C(=O)N1C` [Example 5-6, (3S,6R,9S,12R,15S,18R,21S,24R)-6-benzyl-18-(3-((3,5-dicyclopropyl-1H-pyrazol-1-yl)methyl)benzyl)-3,9,15,21-tetraisobutyl-4,10,12,16,22,24-hexamethyl-1,7,13,19-tetraoxa-4,10,16,22-tetraazacyclotetracosan-2,5,8,11,14,17,20,23-octaone], the minimal effective concentration was in the range of 0.01 to 0.1 µM.

Take `CC(C)C[C@H]1C(=O)O[C@H](Cc2ccc(Cn3cc(NS(C)(=O)=O)cn3)cc2)C(=O)N(C)[C@@H](CC(C)C)C(=O)O[C@H](C)C(=O)N(C)[C@@H](CC(C)C)C(=O)O[C@H](Cc2ccccc2)C(=O)N(C)[C@@H](CC(C)C)C(=O)O[C@H](C)C(=O)N1C` [Example 2-36, N-(1-(4-(((2R,5S,8R,11S,14R,17S,20R,23S)-14-benzyl-5,11,17,23-tetraisobutyl-4,8,10,16,20,22-hexamethyl-3,6,9,12,15,18,21,24-octaoxo-1,7,13,19-tetraoxa-4,10,16,22-tetraazacyclotetracosan-2-yl)methyl)benzyl)-1H-pyrazol-4-yl)methanesulfonamide]: the minimal effective concentration fell in the range of 0.01 to 0.1 µM.
